Assay results reported in US12065436B2, “Cardiac sarcomere inhibitors” (Cytokinetics, Inc., priority 2018, dated 2024).

Target: bovine cardiac myofibrils (full-length cardiac myosin ATPase in the native sarcomere) (Bos taurus (Bovine), UniProt Q9BE39)
Test: Skinned bovine cardiac myofibril ATPase assay (PK/LDH-coupled)
Assay type: biochemical
Settings: Ca2+ activating to 75% of maximal rate; for CDMF75 IC15: concentration giving 15% inhibition; for IC50: read-out: CDMF75 IC50
In short: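 Inhibition of steady-state ATPase read at 340 nm through a PK/LDH-coupled NADH system (0.5 mM NADH, 1.5 mM PEP). Detergent-skinned bovine cardiac myofibrils, 1 mg/mL, were tested at pH 6.8 in PIPES/MgCl2 with 50 μM ATP and calcium adjusted to give pCa50 or pCa75 activation.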

Chain of bovine cardiac myofibrils (full-length cardiac myosin ATPase in the native sarcomere) (Q9BE39 whole entry): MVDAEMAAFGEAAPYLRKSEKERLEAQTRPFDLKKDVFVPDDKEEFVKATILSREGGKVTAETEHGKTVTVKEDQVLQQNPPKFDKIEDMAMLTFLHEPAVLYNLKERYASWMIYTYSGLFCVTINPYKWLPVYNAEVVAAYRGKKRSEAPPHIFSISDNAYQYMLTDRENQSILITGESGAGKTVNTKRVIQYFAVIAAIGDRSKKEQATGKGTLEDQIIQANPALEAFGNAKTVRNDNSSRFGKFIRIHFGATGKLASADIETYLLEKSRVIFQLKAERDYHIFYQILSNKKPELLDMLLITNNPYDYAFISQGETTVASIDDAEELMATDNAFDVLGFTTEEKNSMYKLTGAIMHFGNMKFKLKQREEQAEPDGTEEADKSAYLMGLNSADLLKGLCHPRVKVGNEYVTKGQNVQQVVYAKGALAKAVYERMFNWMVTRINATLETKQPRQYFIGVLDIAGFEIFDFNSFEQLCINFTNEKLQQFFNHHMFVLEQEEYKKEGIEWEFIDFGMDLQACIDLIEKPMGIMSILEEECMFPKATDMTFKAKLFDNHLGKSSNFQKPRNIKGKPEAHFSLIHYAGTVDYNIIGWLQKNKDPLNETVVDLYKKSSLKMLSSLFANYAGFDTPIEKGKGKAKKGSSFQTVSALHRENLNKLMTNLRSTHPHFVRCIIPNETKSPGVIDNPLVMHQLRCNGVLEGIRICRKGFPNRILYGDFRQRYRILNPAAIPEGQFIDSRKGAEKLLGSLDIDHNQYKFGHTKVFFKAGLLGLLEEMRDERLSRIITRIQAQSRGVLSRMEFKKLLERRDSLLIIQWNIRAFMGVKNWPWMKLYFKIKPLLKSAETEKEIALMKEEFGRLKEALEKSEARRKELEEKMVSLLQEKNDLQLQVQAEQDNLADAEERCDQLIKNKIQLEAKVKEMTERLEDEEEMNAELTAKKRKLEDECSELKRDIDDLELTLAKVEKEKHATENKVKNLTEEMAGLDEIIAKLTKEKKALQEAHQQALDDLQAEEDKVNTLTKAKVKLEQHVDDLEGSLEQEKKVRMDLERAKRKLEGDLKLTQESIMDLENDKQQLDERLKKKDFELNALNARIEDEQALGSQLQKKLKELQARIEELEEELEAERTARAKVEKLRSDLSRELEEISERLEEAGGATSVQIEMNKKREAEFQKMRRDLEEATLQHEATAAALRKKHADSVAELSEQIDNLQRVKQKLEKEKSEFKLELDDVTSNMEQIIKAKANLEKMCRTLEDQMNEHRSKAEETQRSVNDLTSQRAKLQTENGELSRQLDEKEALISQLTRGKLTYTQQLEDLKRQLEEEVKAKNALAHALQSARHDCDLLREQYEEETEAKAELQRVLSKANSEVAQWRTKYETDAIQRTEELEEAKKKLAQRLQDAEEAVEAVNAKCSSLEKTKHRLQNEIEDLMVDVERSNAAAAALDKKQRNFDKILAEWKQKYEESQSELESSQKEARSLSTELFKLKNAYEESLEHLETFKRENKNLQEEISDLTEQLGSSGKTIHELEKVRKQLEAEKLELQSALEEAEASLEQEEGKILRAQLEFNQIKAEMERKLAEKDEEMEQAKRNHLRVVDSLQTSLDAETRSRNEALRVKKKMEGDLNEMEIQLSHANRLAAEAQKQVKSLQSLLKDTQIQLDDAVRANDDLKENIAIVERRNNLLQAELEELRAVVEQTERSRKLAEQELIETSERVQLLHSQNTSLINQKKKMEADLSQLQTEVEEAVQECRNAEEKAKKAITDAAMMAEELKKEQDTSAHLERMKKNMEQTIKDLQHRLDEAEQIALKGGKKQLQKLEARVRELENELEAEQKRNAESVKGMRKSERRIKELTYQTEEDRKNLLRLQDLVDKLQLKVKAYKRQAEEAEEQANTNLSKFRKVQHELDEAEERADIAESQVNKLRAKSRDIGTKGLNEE
Chain of bovine cardiac myofibrils (full-length cardiac myosin ATPase in the native sarcomere) (P85100 whole entry partner): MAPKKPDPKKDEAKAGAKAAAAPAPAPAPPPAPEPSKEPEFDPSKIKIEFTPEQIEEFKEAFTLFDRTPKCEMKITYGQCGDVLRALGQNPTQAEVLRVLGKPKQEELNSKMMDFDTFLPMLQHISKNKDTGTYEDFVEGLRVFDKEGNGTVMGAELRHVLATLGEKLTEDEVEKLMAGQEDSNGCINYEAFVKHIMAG
Chain of bovine cardiac myofibrils (full-length cardiac myosin ATPase in the native sarcomere) (Q3SZE5 whole entry partner): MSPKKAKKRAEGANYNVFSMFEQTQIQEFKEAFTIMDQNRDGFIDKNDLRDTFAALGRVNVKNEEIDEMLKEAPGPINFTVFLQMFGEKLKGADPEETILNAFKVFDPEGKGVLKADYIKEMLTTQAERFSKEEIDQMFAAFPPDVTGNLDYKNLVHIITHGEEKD

SMILES | CDMF75 IC15 | IC50
CCc1noc(-c2ccc3c(c2)CC[C@H]3NC(=O)c2nnn(C)n2)n1 [Compound 256, (R)-N-(5-(3-ethyl-1,2,4-oxadiazol-5-yl)-2,3-dihydro-1H-inden-1-yl)-2-methyl-2H-tetrazole-5-carboxamide] | 500 nM | 1700 nM
CCc1noc(-c2ccc3c(c2)CC[C@H]3NC(=O)c2ccnn2C)n1 [Compound 257, (R)-N-(5-(3-ethyl-1,2,4-oxadiazol-5-yl)-2,3-dihydro-1H-inden-1-yl)-1-methyl-1H-pyrazole-5-carboxamide] | 400 nM | 1000 nM
Cn1cc(C(=O)N[C@@H]2CCc3cc(-c4nc(C5CC5)no4)ccc32)cn1 [Compound 258, (R)-N-(5-(3-cyclopropyl-1,2,4-oxadiazol-5-yl)-2,3-dihydro-1H-inden-1-yl)-1-methyl-1H-pyrazole-4-carboxamide] | 1500 nM | 5700 nM
Cc1c(C(=O)N[C@@H]2CCc3cc(-c4nc(C5CC5)no4)ccc32)cnn1C [Compound 259, (R)-N-(5-(3-cyclopropyl-1,2,4-oxadiazol-5-yl)-2,3-dihydro-1H-inden-1-yl)-1,5-dimethyl-1H-pyrazole-4-carboxamide] | 800 nM | 3000 nM
Cn1nnc(C(=O)N[C@@H]2CCc3cc(-c4nc(C5CC5)no4)ccc32)n1 [Compound 260, (R)-N-(5-(3-cyclopropyl-1,2,4-oxadiazol-5-yl)-2,3-dihydro-1H-inden-1-yl)-2-methyl-2H-tetrazole-5-carboxamide] | 400 nM | 1400 nM
Cn1nccc1C(=O)N[C@@H]1CCc2cc(-c3nc(C4CC4)no3)ccc21 [Compound 261, (R)—N-(5-(3-cyclopropyl-1,2,4-oxadiazol-5-yl)-2,3-dihydro-1H-inden-1-yl)-1-methyl-1H-pyrazole-5-carboxamide] | 400 nM | 1200 nM
[2H]C([2H])([2H])c1nc(-c2ccc3c(c2)OC[C@H]3NC(=O)c2ccnn2C)no1 [Compound 262, (S)-1-methyl-N-(6-(5-(methyl-d3)-1,2,4-oxadiazol-3-yl)-2,3-dihydrobenzofuran-3-yl)-1H-pyrazole-5-carboxamide] | 700 nM | 1900 nM
Cc1noc(-c2ccc3c(c2)CC[C@H]3NC(=O)c2cnn(C)c2)n1 [Compound 263, (R)-1-methyl-N-(5-(3-methyl-1,2,4-oxadiazol-5-yl)-2,3-dihydro-1H-inden-1-yl)-1H-pyrazole-4-carboxamide] | 2800 nM | 10500 nM
Cc1noc(-c2ccc3c(c2)CC[C@H]3NC(=O)c2cnn(C)c2C)n1 [Compound 264, (R)-1,5-dimethyl-N-(5-(3-methyl-1,2,4-oxadiazol-5-yl)-2,3-dihydro-1H-inden-1-yl)-1H-pyrazole-4-carboxamide] | 1800 nM | 6600 nM
[2H]C([2H])([2H])c1nc(-c2ccc3c(c2)OC[C@H]3NC(=O)c2cnn(C)c2)no1 [Compound 265, (S)-1-methyl-N-(6-(5-(methyl-d3)-1,2,4-oxadiazol-3-yl)-2,3-dihydrobenzofuran-3-yl)-1H-pyrazole-4-carboxamide] | 1000 nM | 3400 nM
[2H]C([2H])([2H])c1nc(-c2ccc3c(c2)OC[C@H]3NC(=O)c2cc(C)nn2C)no1 [Compound 266, (S)-1,3-dimethyl-N-(6-(5-(methyl-d3)-1,2,4-oxadiazol-3-yl)-2,3-dihydrobenzofuran-3-yl)-1H-pyrazole-5-carboxamide] | 900 nM | 2700 nM
[2H]C([2H])([2H])c1nc(-c2ccc3c(c2)OC[C@H]3NC(=O)c2cnc(C)o2)no1 [Compound 267, (S)-2-methyl-N-(6-(5-(methyl-d3)-1,2,4-oxadiazol-3-yl)-2,3-dihydrobenzofuran-3-yl)oxazole-5-carboxamide] | 1200 nM | 4400 nM
[2H]C([2H])([2H])c1nc(-c2ccc3c(c2)OC[C@H]3NC(=O)c2oc(C)nc2C)no1 [Compound 268, (S)-2,4-dimethyl-N-(6-(5-(methyl-d3)-1,2,4-oxadiazol-3-yl)-2,3-dihydrobenzofuran-3-yl)oxazole-5-carboxamide] | 1900 nM | 5100 nM
[2H]C([2H])([2H])c1nc(-c2ccc3c(c2)OC[C@H]3NC(=O)c2cnn(C)c2C)no1 [Compound 269, (S)-1,5-dimethyl-N-(6-(5-(methyl-d3)-1,2,4-oxadiazol-3-yl)-2,3-dihydrobenzofuran-3-yl)-1H-pyrazole-4-carboxamide] | 1100 nM | 3500 nM
[2H]C([2H])([2H])c1nc(-c2ccc3c(c2)OC[C@H]3NC(=O)c2cn(C)nc2C)no1 [Compound 270, (S)-1,3-dimethyl-N-(6-(5-(methyl-d3)-1,2,4-oxadiazol-3-yl)-2,3-dihydrobenzofuran-3-yl)-1H-pyrazole-4-carboxamide] | 900 nM | 3100 nM
[2H]C([2H])([2H])c1nc(-c2ccc3c(c2)OC[C@H]3NC(=O)c2nnn(C)n2)no1 [Compound 271, (S)-2-methyl-N-(6-(5-(methyl-d3)-1,2,4-oxadiazol-3-yl)-2,3-dihydrobenzofuran-3-yl)-2H-tetrazole-5-carboxamide] | 4300 nM | 17100 nM

SMILES | CDMF75 IC15 | IC50
[2H]C([2H])([2H])c1noc(-c2ccc3c(c2)CC[C@H]3NC(=O)c2nnn(C)n2)n1 [Compound 272, (R)-2-methyl-N-(5-(3-(methyl-d3)-1,2,4-oxadiazol-5-yl)-2,3-dihydro-1H-inden-1-yl)-2H-tetrazole-5-carboxamide] | 1200 nM | 4300 nM
[2H]C([2H])([2H])c1noc(-c2ccc3c(c2)CC[C@H]3NC(=O)c2ccnn2C)n1 [Compound 273, (R)-1-methyl-N-(5-(3-(methyl-d3)-1,2,4-oxadiazol-5-yl)-2,3-dihydro-1H-inden-1-yl)-1H-pyrazole-5-carboxamide] | 700 nM | 2400 nM
[2H]C([2H])([2H])c1noc(-c2ccc3c(c2)CC[C@H]3NC(=O)c2cnn(C)c2)n1 [Compound 274, (R)-1-methyl-N-(5-(3-(methyl-d3)-1,2,4-oxadiazol-5-yl)-2,3-dihydro-1H-inden-1-yl)-1H-pyrazole-4-carboxamide] | 4000 nM | 15000 nM
[2H]C([2H])([2H])c1noc(-c2ccc3c(c2)CC[C@H]3NC(=O)c2oncc2C)n1 [Compound 275, (R)-4-methyl-N-(5-(3-(methyl-d3)-1,2,4-oxadiazol-5-yl)-2,3-dihydro-1H-inden-1-yl)isoxazole-5-carboxamide] | 800 nM | 2900 nM
Cn1cc(C(=O)N[C@@H]2CCc3cc(-c4nc(C(F)F)no4)ccc32)cn1 [Compound 276, (R)-N-(5-(3-(difluoromethyl)-1,2,4-oxadiazol-5-yl)-2,3-dihydro-1H-inden-1-yl)-1-methyl-1H-pyrazole-4-carboxamide] | 2600 nM | 10100 nM
Cc1c(C(=O)N[C@@H]2CCc3cc(-c4nc(C(F)F)no4)ccc32)cnn1C [Compound 277, (R)-N-(5-(3-(difluoromethyl)-1,2,4-oxadiazol-5-yl)-2,3-dihydro-1H-inden-1-yl)-1,5-dimethyl-1H-pyrazole-4-carboxamide] | 1400 nM | 5400 nM
CCOC(=O)N[C@@H]1CCc2cc(-c3noc(C(F)F)n3)ccc21 [Compound 278, ethyl (R)-(5-(5-(difluoromethyl)-1,2,4-oxadiazol-3-yl)-2,3-dihydro-1H-inden-1-yl)carbamate] | 1300 nM | 5200 nM
CC(C)OC(=O)N[C@@H]1CCc2cc(-c3noc(C(F)F)n3)ccc21 [Compound 279, isopropyl (R)-(5-(5-(difluoromethyl)-1,2,4-oxadiazol-3-yl)-2,3-dihydro-1H-inden-1-yl)carbamate] | 22400 nM | > 39200 nM
CC(C)COC(=O)N[C@@H]1CCc2cc(-c3noc(C(F)F)n3)ccc21 [Compound 280, isobutyl (R)-(5-(5-(difluoromethyl)-1,2,4-oxadiazol-3-yl)-2,3-dihydro-1H-inden-1-yl)carbamate] | 700 nM | 2700 nM
O=C(N[C@@H]1CCc2cc(-c3noc(C(F)F)n3)ccc21)OC1CCC1 [Compound 281, cyclobutyl (R)-(5-(5-(difluoromethyl)-1,2,4-oxadiazol-3-yl)-2,3-dihydro-1H-inden-1-yl)carbamate] | 900 nM | > 39200 nM
COC(=O)N[C@@H]1CCc2cc(-c3noc(C(F)F)n3)ccc21 [Compound 282, methyl (R)-(5-(5-(difluoromethyl)-1,2,4-oxadiazol-3-yl)-2,3-dihydro-1H-inden-1-yl)carbamate] | 500 nM | 1900 nM
CCC(=O)N[C@@H]1CCc2cc(-c3noc(C(F)F)n3)ccc21 [Compound 283, (R)-N-(5-(5-(difluoromethyl)-1,2,4-oxadiazol-3-yl)-2,3-dihydro-1H-inden-1-yl)propionamide] | 9600 nM | > 39200 nM
CC(C)C(=O)N[C@@H]1CCc2cc(-c3noc(C(F)F)n3)ccc21 [Compound 284, (R)-N-(5-(5-(difluoromethyl)-1,2,4-oxadiazol-3-yl)-2,3-dihydro-1H-inden-1-yl)isobutyramide] | 38500 nM | > 39200 nM
COCC(=O)N[C@@H]1CCc2cc(-c3noc(C(F)F)n3)ccc21 [Compound 285, (R)-N-(5-(5-(difluoromethyl)-1,2,4-oxadiazol-3-yl)-2,3-dihydro-1H-inden-1-yl)-2-methoxyacetamide] | 9300 nM | > 39200 nM
CC(=O)N[C@@H]1CCc2cc(-c3noc(C(F)F)n3)ccc21 [Compound 286, (R)-N-(5-(5-(difluoromethyl)-1,2,4-oxadiazol-3-yl)-2,3-dihydro-1H-inden-1-yl)acetamide] | 2100 nM | 10200 nM
